Measurements: patent publication US9521845B2, “Beta-lactones as antibacterial agents” (LUDWIG-MAXIMILIANS-UNIVERSITÄT-MÜNCHEN, priority 2008, dated 2016)
Entries after “also recorded” stand apart in the source; their conditions may differ.

What was measured:
[1] = test system: lipase/acylhydrolase (LipAc); experiment: ABPP probe dose down in proteome, lipase/acylhydrolase labeling; assay type: binding; conditions: L. welshimeri proteome
Experimental: (§1) To estimate the strength of probe interactions with proteins in the proteome, we compared the reactivity profiles of selected beta-lactones across a broad concentration range from 10 μM to 5 nM.
(§2) Proteome samples were adjusted to a final concentration of 1 mg protein/mL by dilution in PBS prior to probe labeling. Experiments for visualization by 1D SDS-PAGE were carried out in 43 μL total volume and those for affinity enrichment in 1892 μL total volume, such that once CC reagents were added, the total reaction volume was 50 μL and 2 mL, respectively. Reactions were initiated by addition of the probe and allowed to incubate for 60 min at room temperature. For heat controls the proteome was denatured with 1 μL of 43% SDS at 95° C. for 6 min and cooled to room temperature before the probe was applied. Following incubation, reporter tagged-azide reagents (13 μM rhodamine-azide for analytical or 20 μM rhodamine-biotin-azide for preparative scale) were added followed by 1 mM TCEP and 100 μM ligand. Samples were gently vortexed and the cycloaddition initiated by the addition of 1 mM CuSO4. The reactions were incubated at room temperature for 1 h (Speers, J. Amer. Chem. Soc. 125 (2003), 4686).

[2] = target: T1, S-formylglutathione hydrolase (SFGH) (Escherichia coli, UniProt P51025); experiment: Substrate inhibition assay (p-nitrophenylacetate), IC50 determination; assay type: biochemical; conditions: beta-lactone G2; substrate 2.4 mM, enzyme 30 nM; estimated
T1 construct: made in house; host or cells: E. coli BL21
T1 sequence (P51025 whole entry): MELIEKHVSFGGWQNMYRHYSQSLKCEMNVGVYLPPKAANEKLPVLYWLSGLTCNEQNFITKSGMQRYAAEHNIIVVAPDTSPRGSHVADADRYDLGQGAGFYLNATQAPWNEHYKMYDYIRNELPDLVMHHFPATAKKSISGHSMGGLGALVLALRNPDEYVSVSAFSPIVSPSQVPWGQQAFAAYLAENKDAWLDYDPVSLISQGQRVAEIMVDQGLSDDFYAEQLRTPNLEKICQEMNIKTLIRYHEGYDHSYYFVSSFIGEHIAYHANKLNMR
Experimental: SFGH mediated […] of the p-nitrophenylacetate leads to the release of p-nitrophenol which can be monitored at 400 nm. Various concentrations of beta-lactone G2 were added to a solution containing the substrate (2.4 mM) and enzyme (30 nM). Reactions were started by addition of the enzyme and subsequently monitored for 6 min. The mean average slopes of absorption (out of three independent experiments) versus beta-lactone concentration were plotted and the concentration of 50% inhibition (IC50) was estimated.

lipase (Lip) = experiment: ABPP probe dose down in proteome, lipase labeling; assay type: binding; conditions: L. welshimeri proteome, concentration range 10 μM to 5 nM
Experimental: as §1, §2

[3] = test system: β-Ketoacyl acyl carrier protein synthase II (KAS II); experiment: ABPP labeling of bacterial proteomes, KAS II; assay type: binding, L. welshimeri, B. subtilis; conditions: 50 μM probe, FIGS. 9A and 9B
Description: The library of beta-lactones to be tested comprised compounds with aliphatic or aromatic substitutions varying in length and branching. To evaluate the target selectivity, the beta-lactones were screened against several gram-positive and gram-negative bacterial proteomes including Pseudomonas putida, Listeria welshimeri, Bacillus licheniformis, Bacillus subtilis and Escherichia coli, which are phylogenetically related to pathogenic strains. In addition, mouse liver cytosol was included as an eukaryotic reference proteome. Initial labeling experiments were carried out by adding individual probes at 50 μM concentration to the proteome which is sufficient to achieve full saturation of most targets. […] As an example, labeling of L. welshimeri cytosolic and membrane proteomes as well as B. subtilis cytosolic proteome with a subset of the most complementary probes is shown in FIGS. 9A and 9B. […] Most of the targeted proteins were of low abundance as shown by the direct comparison of the relative intensities observed with Coomassie staining vs. fluorescence scanning (FIG. 11).
Proteome samples were adjusted to a final concentration of 1 mg protein/mL by dilution in PBS prior to probe labeling. […]

[4] = target: T2, Aldehyde dehydrogenase B (ADB) (Escherichia coli, UniProt P37685); experiment: ABPP labeling of E. coli cytosol; assay type: binding; conditions: 100 nM probe concentration, no other off targets
T2 construct: endogenous in cells; host or cells: Escherichia coli K12 lysate, cytosol fraction
T2 sequence (P37685 whole entry): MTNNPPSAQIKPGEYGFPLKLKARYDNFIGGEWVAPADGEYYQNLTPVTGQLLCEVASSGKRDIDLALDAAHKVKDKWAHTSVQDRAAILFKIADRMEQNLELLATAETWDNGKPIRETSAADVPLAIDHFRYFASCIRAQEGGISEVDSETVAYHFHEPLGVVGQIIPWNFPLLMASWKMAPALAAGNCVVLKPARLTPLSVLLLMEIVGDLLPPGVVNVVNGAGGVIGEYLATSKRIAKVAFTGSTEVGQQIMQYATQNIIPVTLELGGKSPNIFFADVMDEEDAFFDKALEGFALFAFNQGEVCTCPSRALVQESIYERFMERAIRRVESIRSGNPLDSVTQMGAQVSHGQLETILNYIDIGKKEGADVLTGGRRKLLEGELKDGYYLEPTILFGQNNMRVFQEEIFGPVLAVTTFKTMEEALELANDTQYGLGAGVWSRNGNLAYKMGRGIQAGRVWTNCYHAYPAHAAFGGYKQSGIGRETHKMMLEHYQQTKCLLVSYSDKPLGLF
Experimental: as §1, §2

HeLa cells = experiment: Cytotoxicity, WST-1 cell proliferation test; assay type: cell-based; conditions: up to a concentration of 1 mM (300 mg/L), 24 h
Experimental: Cytotoxicity was determined in HeLa cells using the WST-1 cell proliferation test. Trypsinated cells were seeded at 100 μL aliquots with antibiotic free medium in Nunclon™ flat-bottom 96-well plates with 1·10^4 cells per well. After incubation of HeLa cells for 24 h, the medium was replaced by antibiotic free test medium containing 1 mM, 100 μM and 10 μM beta-lactone U1, DMSO as non-toxic control and 1% Triton X-100 as 100% lethal control. The DMSO content in all tests was kept at 1%. HeLa cells with test medium were incubated for 24 h, then 10 μL WST-1 reagent were added and after 30 min incubation absorption at 450 nm was read with 630 nm reference wavelength using a TECAN GENios Pro microplate reader.

[5] = test system: Listeria monocytogenes EGDe in the mouse macrophage-like cell line J774; experiment: Infection of J774 cells and intracellular growth assay; assay type: cell-based; conditions: 1 mM, 3 h and 5 h post infection, vs DMSO
Experimental: In a Nunclon™ 96-well plate with flat-bottom 1·10^5 J774 cells per well were seeded in 100 μL 90% DMEM medium with 10% FBS without antibiotics. After 24 h incubation the resulting monolayer was washed once with 100 μL PBS and 100 μL of L. monocytogenes EGDe suspension in 90% DMEM medium with 10% FBS without antibiotics was added either with 1 mM beta-lactone U1 or DMSO. L. monocytogenes was grown in an over night culture with beta-lactone/DMSO and resuspended to approximately 10^6 cells/mL resulting in a multiplicity of infection (MOI) of 0.5. Macrophages were infected for 15 min at 37° C. after 15 min bacterial adherence on ice, as described in Molecular Microbiol. 2000, 35(6): 1286-1294 (incorporated herein by reference). Thereafter, the infected monolayer were washed two times with 100 μL PBS each and fresh 90% DMEM medium with 10% FBS containing 10 μg/mL gentamicin and 1 mM beta-lactone U1 or DMSO was added. After 0, 3 and 5 h post infection, the monolayers were washed again with two times 100 μL PBS and eukaryotic cells lysed by the addition of two times 250 μL of 0.05% solution of Triton X-100 in sterile deionised water. Intracellular bacteria were quantified by colony counting of serial dilutions plated on Listeria-agar (Ottaviani & Agosti Agar, Heipha Diagnostika, Eppelheim, Germany).

[6] = test system: LLO haemolytic activity of L. monocytogenes EGDe; experiment: LLO haemolytic activity testing of culture supernatants; assay type: cell-based, Listeria monocytogenes EGDe; conditions: Listeria monocytogenes, Erythrocyte; cultures grown 16 h with lactone, sheep red blood cells; read-out: EC50 of reduction of LLO haemolytic activity
Experimental: Overnight cultures of L. monocytogenes EGDe were harvested by centrifugation and resuspended in an equal volume of fresh BHB medium. In 1.5 mL Eppendorf tubes, 400 μL of BHB medium were inoculated with 4 μL of the resuspended Listeria culture and 4 μL of a corresponding beta-lactone stock in DMSO. The final concentrations were 800 μM, 400 μM, 200 μM, 100 μM and DMSO as control. The amount of DMSO in all tests was 1% of the medium. After mixing, the test tubes were incubated under continuous shaking at 200 rpm at 37° C. for 16 h. Then, cells were centrifuged and the supernatants filtered sterile by passing them through a 0.2 μm pore size filter. Haemolytic activity of LLO in the culture supernatants was quantitatively investigated according to a method described in J. Food Safety 1998, 18: 197-203 (incorporated herein by reference) with some modifications. In Nunclon™ 96-well plates with round shaped wells 100 μL of serial dilutions of the supernatants in PBS were added per well and incubated with 100 μL of 3% SRBC (sheep red blood cells) resuspended in PBS for 15 min at 37° C. under gentle shaking. The 96-well plates were centrifuged at 600 rpm for 5 min and the minimum dilution at which intact blood cells began to form a pellet was recorded. Controls with no lactone were set 100%. Buffer only controls and pure BHB medium yielded no haemolysis.

Structure (SMILES): C#CCCCC1OC(=O)C1CCCC (stereo not drawn) [G2, trans-3-butyl-4-(4-pentyn-1-yl)oxetan-2-one]
- interaction with lipase/acylhydrolase (LipAc) [1]: does not exhibit strong interaction
- IC50 [2]: 5 µM
- probe concentration down to which lipase is labeled (lipase (Lip)): 20 nM
- KAS II labeling [3]: labeled
- ADB labeling preference [4]: strong preference

Structure (SMILES): C=CCCCCCCCC1C(=O)OC1CCc1ccccc1 (centres unmarked) [U1]
- cytotoxicity to HeLa cells (HeLa cells): non-cytotoxic; also recorded: Neither microscopic alterations of cell morphology nor significant inhibition of cell proliferation
- lower growth in the eukaryotic cells [5]: approximately 76%
- EC50 [6]: < 100 µM
